Columns and labels:
Format in all cases: in vivo
Conditions in all cases: 500 g a.i/ha, foliage treatment after emergence, about 14 days after treatment, score 0-5
corn = test: Test Example-4: phytotoxicity by a foliage treatment after weeds are generated under upland field conditions
Description: (§1) Using the formulation prepared according to the methods described above, the herbicidal effect of the bicyclic pyrazolinone derivative of the invention according to the methods shown in Test Examples below was examined. The herbicidal effect with respect to the test weeds or the phytotoxicity with respect to the test crops was examined according to the following criteria, and evaluated in six stage scores of 0 to 5. A vat having an area of 65 cm^2 and a depth of 2 cm was filled with upland soil, then, seeds of Amaranthus viridis (green amaranthus), Abutilon theophrasti (velvetleaf), Chenopodium album (common lambsquarters), […]. While watering was suitably performed on there, the seeds were grown for 14 days. A wettable powder or an emulsifiable concentrate of the compound of the present invention prepared according to Formulation Example was diluted, and a spray treatment was uniformly performed on the foliage portion of the plant so as to be a predetermined dosage in the amount of water of 4000 L per hectare. The herbicidal effect with respect to the test weeds and the phytotoxicity with respect to corn about 14 days after the treatment were evaluated according to the evaluation criteria in six stages of 0 to 5 described above.

[1] = test system: Amaranthus viridis (green amaranthus); test: Test Example-4: herbicidal effect by a foliage treatment after weeds are generated under upland field conditions
Description: as §1

[2] = test system: Abutilon theophrasti (velvetleaf); test: as above
Description: as §1

[3] = test system: Chenopodium album (common lambsquarters); test: as above
Description: as §1

Structure (SMILES) | Phytotoxicity Corn (corn) | Herbicidal effect Amaranthus viridis [1] | Herbicidal effect Abutilon theophrast [2] | Herbicidal effect Chenopodium album [3]
C=CCOc1ccccc1Oc1cc(-c2c(Cl)n3n(c2=O)CCCC3)c(F)cc1Cl [Example 3-21] | 1 (Herbicidal effect/phytotoxicity was 10% to 30%) | 5 (Herbicidal effect/phytotoxicity was 90% or greater) | 5 (Herbicidal effect/phytotoxicity was 90% or greater) | 5 (Herbicidal effect/phytotoxicity was 90% or greater)
CC1(COc2cc(-c3c(Cl)n4n(c3=O)CCCC4)c(F)cc2Cl)CC(c2ccc(Cl)cc2Cl)=NO1 (stereo not shown) [Example 4-12] | 1 (Herbicidal effect/phytotoxicity was 10% to 30%) | 5 (Herbicidal effect/phytotoxicity was 90% or greater) | 5 (Herbicidal effect/phytotoxicity was 90% or greater) | 5 (Herbicidal effect/phytotoxicity was 90% or greater)
COc1cc(-c2c(Cl)n3n(c2=O)CCCCC3)c(F)cc1Cl [Example 1-141] | 0 (Herbicidal effect/phytotoxicity was 0% to 10%) | 5 (Herbicidal effect/phytotoxicity was 90% or greater) | 5 (Herbicidal effect/phytotoxicity was 90% or greater) | 5 (Herbicidal effect/phytotoxicity was 90% or greater)
CC1(COc2cc(-c3c(Cl)n4n(c3=O)CCCC4)c(F)cc2Cl)CC(c2ccccc2)=NO1 (stereo not shown) [Example 4-1] | 0 (Herbicidal effect/phytotoxicity was 0% to 10%) | 5 (Herbicidal effect/phytotoxicity was 90% or greater) | 5 (Herbicidal effect/phytotoxicity was 90% or greater) | 5 (Herbicidal effect/phytotoxicity was 90% or greater)
C=C(COc1cc(-c2c(Cl)n3n(c2=O)CCCC3)c(F)cc1Cl)c1cccc(Cl)c1 [Example 1-228] | 1 (Herbicidal effect/phytotoxicity was 10% to 30%) | 5 (Herbicidal effect/phytotoxicity was 90% or greater) | 5 (Herbicidal effect/phytotoxicity was 90% or greater) | 5 (Herbicidal effect/phytotoxicity was 90% or greater)
CC#CCOc1ccccc1Oc1cc(-c2c(Cl)n3n(c2=O)CCCC3)c(F)cc1Cl [Example 3-30] | 1 (Herbicidal effect/phytotoxicity was 10% to 30%) | 5 (Herbicidal effect/phytotoxicity was 90% or greater) | 5 (Herbicidal effect/phytotoxicity was 90% or greater) | 5 (Herbicidal effect/phytotoxicity was 90% or greater)
C#CCOc1cc(F)ccc1Oc1cc(-c2c(Cl)n3n(c2=O)CCCC3)c(F)cc1Cl [Example 3-35] | 1 (Herbicidal effect/phytotoxicity was 10% to 30%) | 5 (Herbicidal effect/phytotoxicity was 90% or greater) | 5 (Herbicidal effect/phytotoxicity was 90% or greater) | 5 (Herbicidal effect/phytotoxicity was 90% or greater)
CC(C)Oc1ccccc1Oc1cc(-c2c(Cl)n3n(c2=O)CCCC3)c(F)cc1Cl [Example 3-8] | 0 (Herbicidal effect/phytotoxicity was 0% to 10%) | 5 (Herbicidal effect/phytotoxicity was 90% or greater) | 5 (Herbicidal effect/phytotoxicity was 90% or greater) | 5 (Herbicidal effect/phytotoxicity was 90% or greater)
C=C(C)COc1ccccc1Oc1cc(-c2c(Cl)n3n(c2=O)CCCC3)c(F)cc1Cl [Example 3-22] | 0 (Herbicidal effect/phytotoxicity was 0% to 10%) | 5 (Herbicidal effect/phytotoxicity was 90% or greater) | 5 (Herbicidal effect/phytotoxicity was 90% or greater) | 5 (Herbicidal effect/phytotoxicity was 90% or greater)
CCOC(=O)C=C(COc1cc(-c2c(Cl)n3n(c2=O)CCCC3)c(F)cc1Cl)OC (mixture of isomers) [Example 2-14] | 0 (Herbicidal effect/phytotoxicity was 0% to 10%) | 5 (Herbicidal effect/phytotoxicity was 90% or greater) | 5 (Herbicidal effect/phytotoxicity was 90% or greater) | 5 (Herbicidal effect/phytotoxicity was 90% or greater)
CC1(COc2cc(-c3c(Cl)n4n(c3=O)CCCC4)c(F)cc2Cl)CC(c2ccc(Cl)cc2)=NO1 (stereo not shown) [Example 4-8] | 2 (Herbicidal effect/phytotoxicity was 30% to 50%) | 5 (Herbicidal effect/phytotoxicity was 90% or greater) | 5 (Herbicidal effect/phytotoxicity was 90% or greater) | 5 (Herbicidal effect/phytotoxicity was 90% or greater)
COc1cc(-c2c(Cl)n3n(c2=O)CCCC3)ccc1Cl [Example 1-44] | 0 (Herbicidal effect/phytotoxicity was 0% to 10%) | 5 (Herbicidal effect/phytotoxicity was 90% or greater) | 5 (Herbicidal effect/phytotoxicity was 90% or greater) | 5 (Herbicidal effect/phytotoxicity was 90% or greater)
COc1cc(C)ccc1Oc1cc(-c2c(Cl)n3n(c2=O)CCCC3)c(F)cc1Cl [Example 3-41] | 1 (Herbicidal effect/phytotoxicity was 10% to 30%) | 5 (Herbicidal effect/phytotoxicity was 90% or greater) | 5 (Herbicidal effect/phytotoxicity was 90% or greater) | 5 (Herbicidal effect/phytotoxicity was 90% or greater)
CC1(COc2cc(-c3c(Cl)n4n(c3=O)CCCC4)c(F)cc2Cl)CC(c2ccc(F)cc2Cl)=NO1 (stereo not shown) [Example 4-11] | 2 (Herbicidal effect/phytotoxicity was 30% to 50%) | 5 (Herbicidal effect/phytotoxicity was 90% or greater) | 5 (Herbicidal effect/phytotoxicity was 90% or greater) | 5 (Herbicidal effect/phytotoxicity was 90% or greater)
C#CCOc1cc(-c2c(Cl)n3n(c2=O)CCOCC3)ccc1Cl [Example 1-66] | 1 (Herbicidal effect/phytotoxicity was 10% to 30%) | 5 (Herbicidal effect/phytotoxicity was 90% or greater) | 5 (Herbicidal effect/phytotoxicity was 90% or greater) | 5 (Herbicidal effect/phytotoxicity was 90% or greater)
C=CCOC(=O)C=C(COc1cc(-c2c(Cl)n3n(c2=O)CCCC3)c(F)cc1Cl)OC (mixture of isomers) [Example 2-8] | 2 (Herbicidal effect/phytotoxicity was 30% to 50%) | 5 (Herbicidal effect/phytotoxicity was 90% or greater) | 5 (Herbicidal effect/phytotoxicity was 90% or greater) | 5 (Herbicidal effect/phytotoxicity was 90% or greater)
C=C(COc1cc(-c2c(Cl)n3n(c2=O)CCCC3)c(F)cc1Cl)c1ccc(OCC)c(F)c1F [Example 1-230] | 0 (Herbicidal effect/phytotoxicity was 0% to 10%) | 5 (Herbicidal effect/phytotoxicity was 90% or greater) | 5 (Herbicidal effect/phytotoxicity was 90% or greater) | 5 (Herbicidal effect/phytotoxicity was 90% or greater)
CC(C)Oc1cc(-c2c(Cl)n3n(c2=O)CCCC3)ccc1Cl [Example 1-49] | 0 (Herbicidal effect/phytotoxicity was 0% to 10%) | 5 (Herbicidal effect/phytotoxicity was 90% or greater) | 5 (Herbicidal effect/phytotoxicity was 90% or greater) | 5 (Herbicidal effect/phytotoxicity was 90% or greater)
C=CCOC(=O)C=C(COc1ccccc1Oc1cc(-c2c(Cl)n3n(c2=O)CCCC3)c(F)cc1Cl)OC [Example 3-24] | 0 (Herbicidal effect/phytotoxicity was 0% to 10%) | 5 (Herbicidal effect/phytotoxicity was 90% or greater) | 5 (Herbicidal effect/phytotoxicity was 90% or greater) | 5 (Herbicidal effect/phytotoxicity was 90% or greater)

From patent publication US9580444B2, “Polycyclic pyrazolinone derivative and herbicide comprising same as effective component thereof” (priority 2013, dated 2017)
